Assay [1] addresses Amyloid-beta precursor protein (Homo sapiens, UniProt P05067). The assay can be described thus: Inhibition of amyloid beta (1 to 42) (unknown origin) aggregation.
The subject of the next assay is Erythrocyte. The assay can be described thus: Antiinflammatory activity in human erythrocytes assessed as inhibition of hypotonic solution-induced haemolysis after 10 mins by spectrophotometric analysis. The class given is functional, cell-based.
Assay [2] can be described thus: Anti glycation activity assessed as inhibition of BSA glycation after 7 days in presence of glucose by spectrofluorimetry assay. It is filed as functional.
The target in the next assay is Alpha glucosidase (Homo sapiens, UniProt O43451+P10253+P14410+Q2M2H8). The assay can be described thus: Inhibition of alpha-glucosidase (unknown origin) using p-nitrophenyl-a-d-glucopyranoside as substrate preincubated for 5 mins followed by substrate addition measured after 5 mins by spectrophotometric analysis. The class given is protein assay.
Assay [3] is described as follows: Inhibition of porcine pancreatic alpha-amlyase after 10 mins. Also noted: species or system Sus scrofa.
Assay [4] can be described thus: Antioxidant activity assessed as DPPH radical scavenging activity after 30 mins. It is filed as functional. A general note: DPPH is a stable violet radical that fades when it is reduced.

Amyloid-beta precursor protein, sequence (P05067 whole entry): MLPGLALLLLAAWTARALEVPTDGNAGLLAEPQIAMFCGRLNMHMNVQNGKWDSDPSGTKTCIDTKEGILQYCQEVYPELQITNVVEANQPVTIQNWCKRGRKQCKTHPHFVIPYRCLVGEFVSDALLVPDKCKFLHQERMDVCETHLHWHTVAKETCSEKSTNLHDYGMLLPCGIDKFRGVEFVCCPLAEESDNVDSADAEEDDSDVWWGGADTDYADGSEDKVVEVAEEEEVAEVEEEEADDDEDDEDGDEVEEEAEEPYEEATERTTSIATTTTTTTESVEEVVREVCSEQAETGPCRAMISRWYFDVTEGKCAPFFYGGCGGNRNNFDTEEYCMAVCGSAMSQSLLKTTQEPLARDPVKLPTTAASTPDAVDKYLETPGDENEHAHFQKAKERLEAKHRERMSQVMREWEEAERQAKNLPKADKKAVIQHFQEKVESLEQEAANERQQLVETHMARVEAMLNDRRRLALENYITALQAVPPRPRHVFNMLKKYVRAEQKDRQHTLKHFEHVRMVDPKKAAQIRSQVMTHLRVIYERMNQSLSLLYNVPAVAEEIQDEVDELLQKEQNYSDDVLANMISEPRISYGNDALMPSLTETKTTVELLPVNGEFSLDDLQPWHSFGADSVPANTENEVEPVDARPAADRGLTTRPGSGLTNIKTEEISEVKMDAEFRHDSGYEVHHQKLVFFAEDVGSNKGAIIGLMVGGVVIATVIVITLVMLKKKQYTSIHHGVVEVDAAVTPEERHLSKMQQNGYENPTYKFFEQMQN

The term IC50 denotes the midpoint of a concentration-inhibition curve. Compound `O=c1c2c(F)cccc2[se]n1-c1cc(Cl)c(O)c2ncccc12` came in with an IC50 in assay [1] of 9.6 µM. For the compound `CCCc1nc(C(C)(C)O)c(C(=O)N/N=C/c2ccc(Cl)cc2Cl)[nH]1`, the IC50 in the assay with Erythrocyte came out at 46 µM. Take `Oc1ccc(-c2nc3ncc(Cl)cc3[nH]2)c(O)c1`: in assay [2], the IC50 turned out to be 240 µM. Take `Clc1ccc(-c2nnc(/N=C/c3ccc(Cl)cc3Cl)s2)cc1`: at Alpha glucosidase, the IC50 was 4.7 µM. Compound `O=C(NNC(=S)Nc1ccc(F)cc1)c1cc2cc(Cl)cnc2[nH]1` yielded an IC50 in assay [3] of 2.03 µM. Consider `O=C(NNC(=S)Nc1ccccc1Cl)c1cc2cc(Cl)ccc2[nH]1`, for which the IC50 in assay [3] was 2.1 µM. In the case of `Oc1ccc(O)c(-c2nc3ncc(Cl)cc3[nH]2)c1`, the IC50 in assay [4] was 72.5 µM.

The record behind these values is ChEMBL document CHEMBL4346708, “Synthetic approaches and pharmaceutical applications of chloro-containing molecules for drug discovery: A critical review” (Eur J Med Chem, 2019).
